For one data set, the species on record is Homo sapiens. The data set is described as follows: Ratio of AUC for compound to omeprazolein human. In kind it is ADME, organism-based. The note with it: in vivo.
Data set [1] concerns Liver microsome. The data set is described as follows: Drug metabolism in human liver microsomes assessed as dextrorphan formation measured per mg of microsomal protein. In kind it is ADME. In general terms: Microsomes from liver hold many membrane-bound enzymes, among them those of drug oxidation.
The test system of data set [2] is Liver microsome. The data set is described as follows: Drug metabolism in human liver microsomes assessed as dextrorphan formation. In kind it is ADME.
Data set [3] relates to Liver microsome. The data set is described as follows: Drug metabolism in human liver microsomes assessed as dextrorphan formation measured as microsomal fraction unbound. In kind it is ADME.
Data set [4] has as its system Liver microsome. The data set is described as follows: Drug metabolism in human liver microsomes assessed as dextrorphan formation measured as intrinsic clearance. In kind it is ADME.
Data set [5] has as its system Liver microsome. The data set is described as follows: Drug metabolism in human liver microsomes assessed as dextrorphan formation measured as intrinsic unbound clearance. In kind it is ADME.
Data set [6] relates to Liver microsome. The data set is described as follows: Drug metabolism in human liver microsomes assessed as dextrorphan formation measured as plasma fraction unbound. In kind it is ADME, cell-free.
For data set [7], the system named is Liver microsome. The data set is described as follows: Drug metabolism in human liver metabolism assessed as 5OH-omeprazole formation measured per mg of microsomal protein. In kind it is ADME. The note with it: microsomes.
The subject of data set [8] is Liver microsome. The data set is described as follows: Drug metabolism in human liver metabolism assessed as 5OH-omeprazole formation. In kind it is ADME, tissue-based.
For data set [9], the system named is Liver microsome. The data set is described as follows: Drug metabolism in human liver metabolism assessed as 5OH-omeprazole formation measured as microsomal fraction unbound. The note with it: microsomes. In kind it is ADME.
Data set [10] concerns Liver microsome. The data set is described as follows: Drug metabolism in human liver metabolism assessed as 5OH-omeprazole formation measured as intrinsic clearance per mg of microsomal protein. In kind it is ADME. The note with it: microsomes.
For data set [11], the system named is Liver microsome. The data set is described as follows: Drug metabolism in human liver metabolism assessed as 5OH-omeprazole formation measured as intrinsic unbound clearance per mg of microsomal protein. In kind it is ADME. The note with it: microsomes.
The subject of data set [12] is Hepatocyte. The data set is described as follows: Drug metabolism in human hepatocytes assessed as 5OH-omeprazole formation measured per 10^6 cells as intrinsic unbound clearance. In kind it is ADME, cell-based.
In data set [13] the test system is Liver microsome. The data set is described as follows: Drug metabolism in human liver metabolism assessed as 5OH-omeprazole formation measured as plasma fraction unbound. In kind it is ADME, cell-free.
The test system of data set [14] is Liver microsome. The data set is described as follows: Drug metabolism in human liver metabolism assessed as omeprazole sulfone formation measured per mg of microsomal protein. In kind it is ADME. The note with it: microsomes.
The subject of data set [15] is Liver microsome. The data set is described as follows: Drug metabolism in human liver metabolism assessed as omeprazole sulfone formation. In kind it is ADME, tissue-based.
In data set [16] the test system is Liver microsome. The data set is described as follows: Drug metabolism in human liver metabolism assessed as omeprazole sulfone formation measured as microsomal fraction unbound per mg of microsomal protein. In kind it is ADME. The note with it: microsomes.
The subject of data set [17] is Liver microsome. The data set is described as follows: Drug metabolism in human liver metabolism assessed as omeprazole sulfone formation measured as intrinsic clearance per mg of microsomal protein. Particulars: microsomes. In kind it is ADME.
Data set [18] has as its system Liver microsome. The data set is described as follows: Drug metabolism in human liver metabolism assessed as omeprazole sulfone formation measured as intrinsic unbound clearance per mg of microsomal protein. Particulars: microsomes. In kind it is ADME.
Data set [19] relates to Hepatocyte. The data set is described as follows: Drug metabolism in human hepatocytes assessed as omeprazole sulfone formation measured per 10^6 cells as intrinsic unbound clearance. In kind it is ADME, cell-based.
The test system of data set [20] is Liver microsome. The data set is described as follows: Drug metabolism in human liver metabolism assessed as omeprazole sulfone formation measured as plasma fraction unbound. In kind it is ADME, cell-free.
Data set [21] relates to Hepatocyte. The data set is described as follows: Drug metabolism in human hepatocytes assessed as 5OH-omeprazole depletion measured per 10^6 cells as intrinsic unbound clearance. In kind it is ADME, cell-based.
The subject of data set [22] is Liver microsome. The data set is described as follows: Drug metabolism in human liver metabolism assessed as omeprazole sulfone depletion measured as microsomal fraction unbound. In kind it is ADME. The note with it: microsomes.
Data set [23] deals with Liver microsome. The data set is described as follows: Drug metabolism in human liver metabolism assessed as omeprazole sulfone depletion measured as intrinsic clearance per mg of microsomal protein. In kind it is ADME. Particulars: microsomes.
Data set [24] has as its system Liver microsome. The data set is described as follows: Drug metabolism in human liver metabolism assessed as omeprazole sulfone depletion measured as intrinsic unbound clearance per mg of microsomal protein. In kind it is ADME. Particulars: microsomes.
Data set [25] concerns Hepatocyte. The data set is described as follows: Drug metabolism in human hepatocytes assessed as omeprazole sulfone depletion measured per 10^6 cells as intrinsic unbound clearance. In kind it is ADME, cell-based.
Data set [26] concerns Liver microsome. The data set is described as follows: Drug metabolism in human liver metabolism assessed as omeprazole sulfone depletion measured as plasma fraction unbound. In kind it is ADME, cell-free.

Data on 4 compounds can be found in ChEMBL document CHEMBL3526083, “Prediction of relative in vivo metabolite exposure from in vitro data using two model drugs: dextromethorphan and omeprazole” (Drug Metab Dispos, 2012).

The Vmax is the rate approached at saturating substrate. For orientation: Km means the concentration of substrate that gives half-maximal velocity.

Each structure is given as a SMILES string.

Regarding `COc1ccc2[nH]c([S+]([O-])Cc3ncc(CO)c(OC)c3C)nc2c1` (stereo not drawn), the “Ratio AUC” value in the data set filed under Homo sapiens turned out to be 0.48.
For the compound `COc1ccc2c(c1)[C@]13CCCC[C@@H]1[C@H](C2)N(C)CC3` [DEXTROMETHORPHAN], the Vmax with Liver microsome [1] was found to be 0.066 nmol/min. In the data set with Liver microsome [2], the Km is 5 µM. The Fu in the data set on Liver microsome [3] is on record as 0.93; with Liver microsome [6], 0.72. The CLH in the data set on Liver microsome [4] is 13 µL/min/mg. Moreover, the CL free with Liver microsome [5] was determined as 14 µL/min/mg.
With `COc1ccc2[nH]c([S+]([O-])Cc3ncc(C)c(OC)c3C)nc2c1` (stereo not drawn) [OMEPRAZOLE], the Vmax with Liver microsome [7] is 0.11 nmol/min/mg; with Liver microsome [14] it was 0.074 nmol/min/mg. In addition, the Km in the data set with Liver microsome [8] worked out at 16 µM; in the data set with Liver microsome [15], 11 µM. Besides, the Fu is reported as 0.86 with Liver microsome [9]; 0.061 in the data set on Liver microsome [13]; 0.86 in the data set with Liver microsome [16]; 0.061 in the data set on Liver microsome [20]; 0.92 in the data set on Liver microsome [22]; 0.0048 with Liver microsome [26]. Moreover, the CLint in the data set on Liver microsome [10] was 7.1 µL/min/mg; with Liver microsome [17], 6.6 µL/min/mg; in the data set on Liver microsome [23], 32 µL/min/mg. Besides, the CL free came out at 8.2 µL/min/mg in the data set on Liver microsome [11]; 55 uL/hr/10^6cells with Hepatocyte [12]; 7.7 µL/min/mg with Liver microsome [18]; 3.6 uL/hr/10^6cells with Hepatocyte [19]; 100 uL/hr/10^6cells with Hepatocyte [21]; 35 µL/min/mg with Liver microsome [24]. For the same compound, in the data set with Hepatocyte [25], the CL free amounted to 48 uL/hr/10^6cells.
In the case of `COc1ccc2nc(S(=O)(=O)Cc3ncc(C)c(OC)c3C)[nH]c2c1` [OMEPRAZOLE SULFONE], the “Ratio AUC” value in the data set filed under Homo sapiens is reported as 0.85.
